This is an account of results in patent EP2571508B1, “PROCESS FOR PRODUCING A SHRIMP HYDROLYSATE USING ELECTRODIALYSIS” (Marealis AS, priority 2010, dated 2011).

SMILES strings stand for the structures. Peptide text beside a SMILES is read from it. Where only a bound is given, the exact number is not on record here.

This assay has as its target T1, ACE (Oryctolagus cuniculus, UniProt P12822).
T1 construct: purchased Sigma A 6778
T1 sequence (P12822 34-1310): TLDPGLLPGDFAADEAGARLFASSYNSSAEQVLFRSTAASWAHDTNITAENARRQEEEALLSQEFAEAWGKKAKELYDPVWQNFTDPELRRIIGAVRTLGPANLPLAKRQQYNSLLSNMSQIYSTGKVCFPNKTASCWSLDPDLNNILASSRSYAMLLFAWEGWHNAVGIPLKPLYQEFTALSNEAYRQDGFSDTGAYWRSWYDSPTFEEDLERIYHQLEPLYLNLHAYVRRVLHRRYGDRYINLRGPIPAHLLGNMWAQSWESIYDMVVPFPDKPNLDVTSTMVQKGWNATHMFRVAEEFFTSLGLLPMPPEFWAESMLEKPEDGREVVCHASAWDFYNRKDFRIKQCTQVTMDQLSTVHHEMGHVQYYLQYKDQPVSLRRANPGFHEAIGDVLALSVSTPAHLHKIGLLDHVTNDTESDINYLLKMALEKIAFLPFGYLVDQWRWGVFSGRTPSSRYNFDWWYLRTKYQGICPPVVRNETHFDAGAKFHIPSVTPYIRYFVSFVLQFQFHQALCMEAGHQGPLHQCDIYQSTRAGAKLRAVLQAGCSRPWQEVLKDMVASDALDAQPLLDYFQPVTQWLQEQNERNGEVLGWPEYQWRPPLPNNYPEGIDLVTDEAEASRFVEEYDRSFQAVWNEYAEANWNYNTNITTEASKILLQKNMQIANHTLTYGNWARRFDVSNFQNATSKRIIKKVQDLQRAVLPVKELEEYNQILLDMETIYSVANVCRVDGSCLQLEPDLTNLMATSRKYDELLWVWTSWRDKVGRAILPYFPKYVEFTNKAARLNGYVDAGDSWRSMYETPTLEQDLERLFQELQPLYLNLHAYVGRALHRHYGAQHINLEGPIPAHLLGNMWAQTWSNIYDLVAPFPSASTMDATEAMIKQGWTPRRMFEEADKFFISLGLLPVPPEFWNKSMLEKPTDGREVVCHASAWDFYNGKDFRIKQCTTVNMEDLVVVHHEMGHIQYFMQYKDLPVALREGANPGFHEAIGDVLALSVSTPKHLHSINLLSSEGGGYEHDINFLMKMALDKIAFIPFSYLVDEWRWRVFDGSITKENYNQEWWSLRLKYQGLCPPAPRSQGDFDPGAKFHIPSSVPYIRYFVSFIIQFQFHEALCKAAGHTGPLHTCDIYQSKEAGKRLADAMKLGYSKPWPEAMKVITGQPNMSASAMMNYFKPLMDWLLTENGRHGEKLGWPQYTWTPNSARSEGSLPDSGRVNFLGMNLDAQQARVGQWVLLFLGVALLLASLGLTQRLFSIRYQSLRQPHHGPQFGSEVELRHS
Kind of assay: ACE-inhibitory activity, Cushman and Cheung method (hippuric acid from HHL). To be noted: synthesized peptides. The assay is classed as biochemical. An excerpt: The hydrolysate of the present invention has ACE-inhibitory activity. ACE-inhibitory activity may be assayed using known methods, for example based on the method reported by Cushman and Cheung (1971) by measuring the end product hippuric acid (HA) from the enzymatic reaction between ACE (Sigma A 6778) and the substrate HHL (Sigma H 1635). (CUSHMAN, D. W. & CHEUNG, H. S. (1971). Concentrations of Angiotensin-Converting Enzyme in Tissues of Rat. Biochimica Et Biophysica Acta 250(1), 261-265). A different suitable assay is disclosed by Vermeirssen et al. (2002), J. Biochem Biophys. Methods 51 (2002), pages 75-87. Briefly, this is a spectrophotometric method in which ACE inhibition is measured using the substrate furanacryloyl-Phe-Gly-Gly and rabbit lung acetone extract as the ACE source. The IC50 may be determined.
The peptide composition of the RP-HPLC fractions was analysed using LCMS (liquid chromatography mass spectrometry) and individual peptides were sequenced using LC-MS/MS (liquid chromatography - tandem mass spectrometry). Peptides having the sequences identified by LC-MS/MS were then synthesized and analysed. Molecular weight and pl were calculated by ExPASy Proteomics Server. ACE-inhibitory activity was determined based on the Cushman and Cheung method mentioned elsewhere herein and expressed as the IC50 (concentration that inhibits 50% of enzyme activity).
`CC(C)C[C@H](NC(=O)[C@H](C)N)C(=O)N1CCC[C@H]1C(=O)N[C@@H](Cc1c[nH]cn1)C(=O)O` [ALPH] (H-ALPH-OH): the IC50 was greater than 300 µM. In the case of `CC(C)C[C@H](NC(=O)[C@@H](N)Cc1ccccc1)C(=O)O` [FL] (H-Phe-Leu-OH) it was 380 µM; in that of `CC(C)C[C@H](NC(=O)[C@@H](N)CCCCN)C(=O)N1CCC[C@H]1C(=O)O` [KLP] (H-Lys-Leu-Pro-OH), 200 µM. The compound `CC(C)C[C@H](N)C(=O)N[C@@H](Cc1ccccc1)C(=O)O` [LF] (H-Leu-Phe-OH) yielded an IC50 of 460 µM. The result for `CC(C)C[C@H](NC(=O)[C@H](CC(C)C)NC(=O)[C@@H](N)CC(C)C)C(=O)N[C@@H](CCCCN)C(=O)O` [LLLK] (H-LLLK-OH) reads greater than 300 µM; that for `CC(C)C[C@H](NC(=O)[C@@H](N)CC(C)C)C(=O)N[C@H](C(=O)N[C@@H](CCCCN)C(=O)O)[C@@H](C)O` [LLTK] (H-LLTK-OH), greater than 300 µM. The result for `CC(C)C[C@H](N)C(=O)N[C@@H](CC(N)=O)C(=O)N[C@@H](C)C(=O)O` [LNA*] (H-Leu-Asn-Ala-OH) reads 200 µM; that for `CC(C)C[C@H](N)C(=O)N[C@@H](CC(N)=O)C(=O)N1CCC[C@H]1C(=O)N[C@@H](CCCCN)C(=O)O` [LNPK] (H-LNPK-OH), greater than 300 µM. In the case of `CC(C)C[C@H](N)C(=O)N[C@H](C(=O)N[C@@H](C)C(=O)N[C@@H](Cc1c[nH]cn1)C(=O)O)C(C)C` [LVAH] (H-LVAH-OH) it was greater than 300 µM; in that of `CC(C)C[C@H](N)C(=O)N[C@H](C(=O)N[C@@H](C)C(=O)N[C@@H](CCCCN)C(=O)O)C(C)C` [LVAK] (H-LVAK-OH), greater than 300 µM. For `CC(C)C[C@H](N)C(=O)N[C@H](C(=O)N[C@@H](CCCCN)C(=O)O)C(C)C` [LVK] (H-Leu-Val-Lys-OH), the IC50 worked out at 225 µM. Consider `CC(C)C[C@H](N)C(=O)N[C@@H](Cc1ccc(O)cc1)C(=O)N[C@@H](CCCCN)C(=O)O` [LYK] (H-Leu-Tyr-Lys-OH), for which 250 µM corresponded to half-maximal inhibition (IC50). In the case of `NCCCC[C@H](NC(=O)[C@@H]1CCCN1C(=O)[C@@H](N)CC(N)=O)C(=O)O` [NPK*] (H-Asn-Pro-Lys-OH) it was greater than 300 µM; in that of `CC(C)[C@H](NC(=O)[C@@H](N)CC(N)=O)C(=O)N[C@@H](Cc1ccc(O)cc1)C(=O)O` [NVY] (H-Asn-Val-Tyr-OH), greater than 300 µM. The result for `CC(C)C[C@H](NC(=O)[C@@H](N)C(C)C)C(=O)N[C@@H](C)C(=O)N[C@@H](Cc1c[nH]cn1)C(=O)O` [VLAH*] (H-VLAH-OH) reads greater than 300 µM.

For orientation: IC50 means the concentration at which inhibition is half-maximal. Higher therefore signals weaker potency in that assay.
